From patent US20250034113A1, “SOLID STATE FORMS OF TAVAPADON AND PROCESSES FOR PREPARATION THEREOF” (TEVA CZECH INDUSTRIES S.R.O, priority 2021, published 2025)

Assay: Stability test of crystalline forms at different relative humidities and temperatures, XRPD analysis
Format: physicochemical
Conditions: for time stable after exposure to different relative humidity conditions at different temperatures: 25° C./60% RH and 40° C./75% RH, by XRPD; for XRPD analysis after storage: 2 month; for stability to conditions of relative humidity at elevated temperatures: general statement
Description: Powder X-ray Diffraction was performed on an X-Ray powder diffractometer PanAlytical X'pert Pro; CuKα radiation (λ=1.54187 Å); X'Celerator detector with active length 2.122 degrees 2-theta; laboratory temperature 25±3° C.; zero background sample holders. Prior to analysis, the samples were gently ground using a mortar and pestle to obtain a fine powder. The ground sample was adjusted into a cavity of the sample holder and the surface of the sample was smoothed using a cover glass.
• Scan range: 3-40 degrees 2-theta • Scan mode: continuous • Step size: 0.0167 degrees • […] s • Sample spin: 60 rpm • Sample holder: zero background silicon plate
Samples of Tavapadon form 1 and Form H1 were subjected to conditions of different relative humidities at different temperatures. XRPD analysis was performed on the samples after 2 month.
Samples of Tavapadon Form H1 were subjected to conditions of different relative humidities at different temperatures, over a time period of 6 months. XRPD analysis was performed on the samples after 2, 4 and 6 months.
Samples of Tavapadon Form R1 were subjected to conditions of different relative humidities at different temperatures, over a time period of 6 months. XRPD analysis was performed on the samples after 2, 4 and 6 months.

Row | SMILES | XRPD result (crystalline form) (0 M (start)) | time stable after exposure to different relative humidity conditions at different temperatures | XRPD result (crystalline form) (25° C./60% RH, 2 M) | XRPD result (crystalline form) (25° C./60% RH, 4 M) | XRPD result (crystalline form) (25° C./60% RH, 6 M) | XRPD result (crystalline form) (40° C./75% RH, 2 M) | XRPD result (crystalline form) (40° C./75% RH, 4 M) | XRPD result (crystalline form) (40° C./75% RH, 6 M) | XRPD analysis after storage (25° C., 60% RH) | stability to conditions of relative humidity at elevated temperatures | XRPD analysis after storage (40° C., 75% RH)
1 | Cc1cc(Oc2ncccc2C(F)(F)F)ccc1-c1c(C)c(=O)[nH]c(=O)n1C (racemic) [Tavapadon Form R1, 1,5-dimethyl-6-(2-methyl-4-{[3-(trifluoromethyl)pyridin-2-yl]oxy}phenyl)pyrimidine-2,4(1H,3H)-dione] | Form R1 | at least 6 months | Form R1 | Form R1 | Form R1 | Form R1 | Form R1 | Form R1 |  |  | 
2 | Cc1cc(Oc2ncccc2C(F)(F)F)ccc1-c1c(C)c(=O)[nH]c(=O)n1C (single isomer, unassigned) [Tavapadon Form H1, 1,5-dimethyl-6-(2-methyl-4-{[3-(trifluoromethyl)pyridin-2-yl]oxy}phenyl)pyrimidine-2,4(1H,3H)-dione] | Form H1 | at least 6 months | Form H1 | Form H1 | Form H1 | Form H1 | Form H1 | Form H1 | No change | particularly stable | 
3 | Cc1cc(Oc2ncccc2C(F)(F)F)ccc1-c1c(C)c(=O)[nH]c(=O)n1C (single isomer, unassigned) [Tavapadon Form 1, 1,5-dimethyl-6-(2-methyl-4-{[3-(trifluoromethyl)pyridin-2-yl]oxy}phenyl)pyrimidine-2,4(1H,3H)-dione] |  |  |  |  |  |  |  |  | No change | particularly stable | No change
